The source of these data is publication PMC3554599, “Hydrophobic analogues of rhodamine B and rhodamine 101: potent fluorescent probes of mitochondria in living C. elegans” (Beilstein Journal of Organic Chemistry, 2012).

Series [1] deals with mitochondria in living C. elegans. Briefly: Confocal laser scanning microscopy of living adult C. elegans treated with fluorophores. Format: in vivo. Particulars: for bioaccumulation among the fluorophores examined: 100 pM or 1 nM, 20× objective; for selectivity of intracellular staining: living C. elegans; for time to observable fluorescence in some animals / time until most animals became fluorescent: living adult C. elegans.

Series [2] is described as follows: Quantum yield by the method of Williams in MeOH. Format: physicochemical. Particulars: relative to rhodamine B and rhodamine 6G. On the procedure:
(§1) The red-shifted spectra of HR101 10 compared with HRB 9 can be explained by greater delocalization of the lone pairs on nitrogen due to restricted rotation about C–N bonds conferred by the fused rings of 10. By using the method of Williams, the quantum yields of 9 and 10 were determined relative to rhodamine B (5) and rhodamine 6G (7, Figure 3, panels A and B), and the extinction coefficients of these compounds were quantified (Figure 3, panel C). The replacement of the carboxylate of rhodamine B (5) and rhodamine 101 (8) with a methyl group slightly red shifted the absorbance and emission spectra in methanol (5 nm and 8 to 9 nm, respectively). […] Additionally, a modest reduction in quantum yield of ~0.3 for both fluorophores was observed.
(§2) Figure 3 Linear regression used to determine spectroscopic parameters of HRB 9 and HR101 10 in MeOH. Panels A and B: Determination of quantum yields relative to rhodamine B (5) and rhodamine 6G (7). Panel C: Quantification of molar extinction coefficients. TEXT PRINTED IN THE PICTURE: (A) RhB 5: Φ = 0.69 | (A) Rh6G 7: Φ = 0.93 | (B) HRB 9: Φ = 0.39 | (B) HR101 10: Φ = 0.60 | (C) HRB 9: ε555 nm = 83,000 M^-1 cm^-1 | (C) HR101 10: ε576 nm = 107,000 M^-1 cm^-1

Series [3] in a line: Molar extinction coefficient by linear regression of absorbance. Type of series: physicochemical. As for the experimental part: as §1, §2
Series [4] is described as follows: log D by fluorescence-based shake-flask method, octanol/phosphate buffer pH 7.4. Type of series: physicochemical. The following applies: for enhanced partitioning into octanol compared with aqueous buffer, relative to parent compound: methyl analogue vs parent rhodamine B / rhodamine 101; for logD: octanol/phosphate buffer (1:1), octanol/buffer pH 7.4, fluorescence-based shake-flask, 24 h, 25 °C. As for the experimental part: Values of log D were measured by dissolution of solids in 1:1 octanol/phosphate buffer (4 mL total volume, 5 mM phosphate, pH 7.4) to provide 5 mM solutions of the fluorophore. Samples were shaken for 24 h at 25 °C to equilibrate. […] Aliquots of these fractions were diluted in octanol (derived from the top fraction) or buffer (derived bottom fraction) to generate stock solutions (10×) appropriate for analysis. These stock solutions were further diluted 10-fold and analyzed in a solvent mixture comprising ethanol (80%), octanol (10%), and phosphate buffer (10%, pH 7.4). The ratio of fluorescence emission at λmax was used to calculate log D.

The subject of a further series is C. elegans. The following applies: N2, C. elegans, in vivo, 2 h.
The conditions of series [5]: MeOH; cited from earlier work.
The conditions of series [6]: octanol/neutral buffer, cited from earlier work.
On the set-up of series [7]: method as in PMID 15571431. The following applies: 545 nm in ethanol; cited from earlier work.

Where two headings read alike, the source gives them in different places.

For `CCOC(=O)c1ccccc1-c1c2ccc(=[N+](CC)CC)cc-2oc2cc(N(CC)CC)ccc12` [Basic Violet 11 (6), basic violet 11, reference compound], in series [1] (2 h), the “bioaccumulation among the fluorophores examined” value is recorded as “highest bioaccumulation” and the “selectivity of intracellular staining” value is recorded as “low selectivity”.
By logD is commonly meant the decadic logarithm of the distribution of all forms, ionised or not, between an organic phase and buffer at a given pH. Read a low logD as lower lipophilicity. On to `Cc1ccccc1C1=c2cc3c4c(c2Oc2c1cc1c5c2CCCN5CCC1)CCC[N+]=4CCC3` [HR101 10, 16-(2-Methylphenyl)-3-oxa-9,23-diazaheptacyclo[17.7.1.1^{5,9}.0^{2,17}.0^{4,15}.0^{23,27}.0^{13,28}]octacosa-1(27),2(17),4,9(28),13,15,18-heptaen-9-ium], for which, in series [2], the “quantum yield Φ” value came to 0.60. For the same compound, the “molar extinction coefficient ε576 nm” value in series [3] (576 nm in MeOH) is recorded as 107,000 M^-1 cm^-1. Moreover, in series [1] (2 h), the “bioaccumulation among the fluorophores examined” value was “highest bioaccumulation” and the “selectivity of intracellular staining” value was “most specific mitochondrial stains”. In series [1], the “time to observable fluorescence in some animals” value is reported as not above 30 min and the “time until most animals became fluorescent” value is not above 2 h. In series [4], the “enhanced partitioning into octanol compared with aqueous buffer, relative to parent compound” value is recorded as not below 10 fold and the logD amounted to 6.2. For the same compound, the “concentration conferring some toxicity” value with C. elegans was not below 1000 µM.
Take `CCN(CC)c1ccc2c(-c3ccccc3C)c3ccc(=[N+](CC)CC)cc-3oc2c1` [HRB 9, 6-(Diethylamino)-N,N-diethyl-9-(2-methylphenyl)-3H-xanthen-3-imine]: the “quantum yield Φ” value in series [2] was 0.39. In addition, the “molar extinction coefficient ε555 nm” value in series [3] (555 nm in methanol) is 83,000 M^-1 cm^-1. In series [1] (2 h), the “bioaccumulation among the fluorophores examined” value is reported as “highest bioaccumulation” and the “selectivity of intracellular staining” value is reported as “most specific mitochondrial stains”. In series [1], the “time to observable fluorescence in some animals” value is recorded as not above 30 min and the “time until most animals became fluorescent” value is given as not above 2 h. Also, in series [4], the “enhanced partitioning into octanol compared with aqueous buffer, relative to parent compound” value is listed as not below 10 fold and the logD was 5.9. In addition, in the series on C. elegans, the “concentration conferring some toxicity” value was not below 1000 µM.
As to `CC/N=c1\cc2oc3cc(NCC)c(C)cc3c(-c3ccccc3C(=O)OCC)c-2cc1C` [Rhodamine 6G (7), rhodamine 6G], the “quantum yield Φ (standard)” value in series [5] is listed as 0.93. For the same compound, in series [1] (2 h), the “selectivity of intracellular staining” value is “most specific mitochondrial stains”. Further, the “log D octanol/buffer” value in series [6] (ref 37) was 2.1 [37].
With `O=C([O-])c1ccccc1C1=c2cc3c4c(c2Oc2c1cc1c5c2CCCN5CCC1)CCC[N+]=4CCC3` [Rhodamine 101 (8), rhodamine 101], in series [1] (60× objective, 2 h, rhodamine 101 at 100-fold higher concentration than HRB 9 and HR101 10), the “penetration into germline, cells and tissues” value is reported as “did not penetrate into the germline”. In series [4], the logD is 5.2.
For the compound `COC(=O)c1ccccc1-c1c2ccc(=N)cc-2oc2cc(N)ccc12` [Rhodamine 123 (4), rhodamine 123], the “log D octanol/buffer” value in series [6] (listed as rhodamine 123 (4)) is recorded as −0.62; in series [6] (ref 9) it was −0.6; in series [6] (ref 37) it was 0.5.
On to rhodamine B [Rhodamine B (5)], for which the molar extinction coefficient in series [7] was 106,000 M^−1 cm^−1. In addition, the “quantum yield Φ (standard)” value in series [5] is on record as 0.69. Moreover, the “log D octanol/buffer” value in series [6] (ref 46) was 2.3 [46].
